Reference: US12568967B2, “Compositions comprising pyridine carboxylate herbicides with synthetic auxin herbicides or auxin transport inhibitors” (priority 2018, dated 2026)
Where “and” joins values, the source holds several entries; their conditions need not be identical. Equal entries are not always repeated.

Columns and labels:
Assay type in all cases: in vivo
[1] = system: Sinapis arvensis (wild mustard, SINAR); assay: Greenhouse postemergence trial SINAR
[2] = system: Helianthus annuus (common sunflower, HELAN); assay: Greenhouse postemergence trial HELAN; conditions: Compound A 10 g/ha
Procedure: (§1) Seeds of the desired test plant species were planted in a 90:10% v/v (volume/volume) mixture of PRO-MIX® BX (Premier Tech Horticulture, Quakertown, PA, USA) and PROFILE® GREENS GRADE™ (Profile Products LLC, Buffalo Grove, IL, USA) planting mixture, which typically has a pH of 5.2 to 6.2 and an organic matter content of at least 50 percent, in plastic pots with a surface area of 103.2 square centimeters (cm^2). […] The plants were grown for 7-36 days (d) in a greenhouse with an approximate 14-hour (h) photo-period which was maintained at about 23° C. during the day and 22° C. during the night. Nutrients and water were added on a regular basis and supplemental lighting was provided with overhead metal halide 1000-Watt lamps as necessary. The plants were employed for testing when they reached the second or third true leaf stage.
(§2) Emulsifiable concentrates of each of each pyridine carboxylate herbicide (Compound A or Compound B) were prepared at 100 grams acid equivalent per liter (g ae/L). The emulsifiable concentrates also included a safener, cloquintocet-mexyl, at 120 grams active ingredient per liter (g ai/L), unless otherwise noted below. An aliquot of each emulsifiable concentrate was placed in a 25 mL glass vial and diluted with an aqueous mixture of 1.25% (v/v) ACTIROB® B esterified rapeseed oil (Bayer Crop Science, Research Triangle Park, NC, USA) or MSO® Concentrate with LECI-TECH® methylated soybean oil (Loveland Products, Loveland, CO, USA) to obtain concentrated stock solutions at the highest application rate for each herbicide, based upon a 12 milliliter (mL) application volume at a rate of 187 liters per hectare (L/ha). The concentrated stock solutions were further diluted with an aqueous mixture of 1.25% v/v ACTIROB® B or MSO® Concentrate with LECI-TECH® to obtain stock solutions at reduced application rates for each herbicide. Spray solutions of the herbicide combinations (Compound A or Compound B plus synthetic auxin herbicide or auxin transport inhibitor) were prepared by adding weighed amounts or aliquots of the synthetic auxin herbicide or auxin transport inhibitor to the stock solutions of Compound A or Compound B to form 12-mL spray solutions in two-way combinations.
(§3) The spray solutions were applied to the plant material with an overhead Mandel track sprayer equipped with 8002E nozzles calibrated to deliver 187 L/ha over an application area of 0.503 square meters (m^2) at a spray height of 18 inches (43 centimeters (cm)) above the average plant canopy. Control plants were sprayed in the same manner with the solvent blank. All pyridine carboxylate herbicide (component a) application rates are given as “g ae/ha” and all synthetic auxin herbicide or auxin transport inhibitor (component b) application rates are given as “g ai/ha.”
(§4) The treated plants and control plants were placed in a greenhouse as described above and watered by sub-irrigation to prevent wash-off of the test compounds. After 20-22 d, the condition of the test plants as compared with that of the control plants was determined visually and scored on a scale of 0 to 100 percent where 0 corresponds to no injury and 100 corresponds to complete kill.

[3] = system: Cyperus esculentus (nutsedge, CYPES); assay: Greenhouse postemergence trial CYPES; conditions: Compound A 10 g/ha
Procedure: as §1
Emulsifiable concentrates of each of each pyridine carboxylate herbicide (Compound A or Compound B) were prepared at 100 grams acid equivalent per liter (g ae/L). The emulsifiable concentrates also included a safener, cloquintocet-mexyl, at 120 grams active ingredient per liter (g ai/L), unless otherwise noted below. An aliquot of each emulsifiable concentrate was placed in a 25 mL glass vial and diluted with an aqueous mixture of 1.25% (v/v) ACTIROB® B esterified rapeseed oil (Bayer Crop Science, Research Triangle Park, NC, USA) or MSO® Concentrate with LECI-TECH® methylated soybean oil (Loveland Products, Loveland, CO, USA) to obtain concentrated stock solutions at the highest application rate for each herbicide, based upon a 12 milliliter (mL) application volume at a rate of 187 liters per hectare (L/ha). The concentrated stock solutions were further diluted with an aqueous mixture of 1.25% v/v ACTIROB® B or MSO® Concentrate with LECI-TECH® to obtain stock solutions at reduced application rates for each herbicide. Spray solutions of the herbicide combinations (Compound A or Compound B plus synthetic auxin herbicide or auxin transport inhibitor) were prepared by adding weighed amounts or aliquots of the synthetic auxin herbicide or auxin transport inhibitor to the stock solutions of Compound A or Compound B to form 12-mL spray solutions in two-way combinations. […]
as §4

[4] = system: Brassica napus (spring rape, BRSNN); assay: Greenhouse postemergence trial BRSNN
Procedure: The plants were grown for 7-36 days (d) in a greenhouse with an approximate 14-hour (h) photo-period which was maintained at about 23° C. during the day and 22° C. during the night. Nutrients and water were added on a regular basis and supplemental lighting was provided with overhead metal halide 1000-Watt lamps as necessary. The plants were employed for testing when they reached the second or third true leaf stage.
The emulsifiable concentrates also included a safener, cloquintocet-mexyl, at 120 grams active ingredient per liter (g ai/L), unless otherwise noted below.
Control plants were sprayed in the same manner with the solvent blank. All pyridine carboxylate herbicide (component a) application rates are given as “g ae/ha” and all synthetic auxin herbicide or auxin transport inhibitor (component b) application rates are given as “g ai/ha.”
as §4

[5] = system: Digitaria sanguinalis (large crabgrass, DIGSA); assay: Greenhouse postemergence trial DIGSA; conditions: Compound A 10 g/ha
Procedure: as §1, §2, §3, §4

[6] = system: Oryza sativa (common rice, ORYSA); assay: Greenhouse postemergence trial ORYSA; conditions: Compound A 10 g/ha
Procedure: as §1
Emulsifiable concentrates of each of each pyridine carboxylate herbicide (Compound A or Compound B) were prepared at 100 grams acid equivalent per liter (g ae/L). […]
as §4

[7] = system: Polygonum convolvulus (wild buckwheat, POLCO); assay: Greenhouse postemergence trial POLCO
[8] = system: Stellaria media (chickweed, STEME); assay: Greenhouse postemergence trial STEME; conditions: for % visual injury Obs: alone
Procedure: as §1, §2, §3, §4

[9] = system: Matricaria discoidea (pineapple weed, MATMT); assay: Greenhouse postemergence trial MATMT; conditions: MATMT; for % visual injury Obs: alone
Procedure: as §1, §2, §3, §4

[10] = Compound A 10 g/ha, without safener

N#CCOC(=O)c1nc(-c2ccc3cc[nH]c3c2F)c(F)c(N)c1Cl [Compound A, cyanomethyl 4-amino-3-chloro-5-fluoro-6-(7-fluoro-1H-indol-6-yl)pyridine-2-carboxylate]
SINAR Obs (% visual injury) ([1]; Compound A 10 g/ha): 100% and 90% | SINAR % visual injury Obs ([1]; Compound A 10 g/ha (Table 42)): 100% | SINAR % visual injury Obs ([1]; Compound A 10 g/ha (Table 43)): 100% | SINAR % visual injury Obs ([1]; Compound A 10 g/ha (Table 44)): 100% | pest or weed control at […] ([1]; Mutarda arvensis, post-emergence, SINAR, Compound A 7.5 g/ha, read-out: % visual injury Obs): 90% | pest or weed control at 10 g/ha ([1]; Mutarda arvensis, post-emergence, SINAR, Compound A 10 g/ha, read-out: % visual injury Obs): 90% | pest or weed control at 15 g/ha ([1]; Mutarda arvensis, post-emergence, SINAR, Compound A 15 g/ha, read-out: % visual injury Obs): 100% | % visual injury Obs ([1]; SINAR, Compound A 10 g/ha): 90% | % visual injury, Obs ([1]; SINAR, Compound A 10 g/ha): 100% and 88% | visual injury, Obs ([1]; SINAR, Compound A 10 g/ha alone): 90% | visual injury, Obs ([1]; SINAR, Compound A 15 g/ha alone): 100% | % visual injury (Obs) ([1]; SINAR, alone, 10 g/ha): 90% and 88% | % visual injury Obs ([1]; SINAR, alone, 10 g/ha): 90% | % visual injury Obs ([1]; SINAR, alone, 15 g/ha): 100% | % visual injury, Obs ([1]; SINAR, applied alone, 10 g/ha): 90% and 88% | % visual injury, Obs ([1]; SINAR, applied alone, 15 g/ha): 100% | HELAN Obs (% visual injury) ([2]; without safener): 100% | % visual injury, Obs ([2]; HELAN): 100% | % visual injury, Obs ([3]; CYPES): 0% | CYPES Obs (% visual injury) ([3]; without safener): 0% | % visual injury, Obs ([4]; BRSNN, Compound A 10 g/ha): 55% | % visual injury (Obs) ([4]; BRSNN, alone 10 g/ha): 73% and 70% | BRSNN Obs (% visual injury) ([4]; Compound A 10 g/ha): 55% and 83% and 70% | BRSNN % visual injury Obs ([4]; Compound A 10 g/ha (Table 42)): 55% | BRSNN % visual injury Obs ([4]; Compound A 10 g/ha (Table 43)): 55% | BRSNN % visual injury Obs ([4]; Compound A 10 g/ha (Table 44)): 55% | DIGSA Obs (% visual injury) [5]: 25% | DIGSA Obs (% visual injury) ([5]; without safener): 8% | % visual injury, Obs ([5]; DIGSA): 8% | ORYSA Obs (% visual injury) [6]: 10% | POLCO Obs (% visual injury) ([7]; Compound A 10 g/ha): 91% and 70% | POLCO % visual injury Obs ([7]; Compound A 10 g/ha (Table 42)): 91% | POLCO % visual injury Obs ([7]; Compound A 10 g/ha (Table 43)): 91% | POLCO % visual injury Obs ([7]; Compound A 10 g/ha (Table 44)): 91% | POLCO Obs (% visual injury) [7, 10]: 78% | pest or weed control at […] ([7]; Fallopia convolvulus, post-emergence, POLCO, Compound A 7.5 g/ha, read-out: % visual injury Obs): 85% | pest or weed control at 10 g/ha ([7]; Fallopia convolvulus, post-emergence, POLCO, Compound A 10 g/ha, read-out: % visual injury Obs): 90% | pest or weed control at 15 g/ha ([7]; Fallopia convolvulus, post-emergence, POLCO, Compound A 15 g/ha, read-out: % visual injury Obs): 95% | % visual injury Obs ([7]; POLCO, Compound A 10 g/ha): 90% | % visual injury, Obs ([7]; POLCO, Compound A 10 g/ha): 91% and 70% and 78% | visual injury, Obs ([7]; POLCO, Compound A 10 g/ha alone): 90% | visual injury, Obs ([7]; POLCO, Compound A 15 g/ha alone): 95% | % visual injury (Obs) ([7]; POLCO, alone 10 g/ha): 86% and 96% and 70% | % visual injury Obs ([7]; POLCO, alone 10 g/ha): 90% | % visual injury Obs ([7]; POLCO, alone, 15 g/ha): 95% | % visual injury, Obs ([7]; POLCO, applied alone, 10 g/ha): 90% and 43% | % visual injury, Obs ([7]; POLCO, applied alone, 15 g/ha): 95% | STEME Obs (% visual injury) [8, 10]: 88% | % visual injury, Obs ([8]; STEME, Compound A 10 g/ha): 88% | visual injury, Obs ([8]; STEME, Compound A 10 g/ha alone): 70% | visual injury, Obs ([8]; STEME, Compound A 15 g/ha alone): 100% | % visual injury Obs ([8]; STEME, 10 g/ha): 70% | % visual injury Obs ([8]; STEME, 15 g/ha): 100% | % visual injury, Obs ([8]; STEME, applied alone, 10 g/ha): 70% | % visual injury, Obs ([8]; STEME, applied alone, 15 g/ha): 100% | pest or weed control at […] ([8]; Stellaria media, post-emergence, STEME, Compound A 7.5 g/ha, read-out: % visual injury Obs): 65% | pest or weed control at 10 g/ha ([8]; Stellaria media, post-emergence, STEME, Compound A 10 g/ha, read-out: % visual injury Obs): 70% | pest or weed control at 15 g/ha ([8]; Stellaria media, post-emergence, STEME, Compound A 15 g/ha, read-out: % visual injury Obs): 100% | visual injury, Obs ([9]; Compound A 10 g/ha alone): 5% | visual injury, Obs ([9]; Compound A 15 g/ha alone): 15% | % visual injury Obs ([9]; 10 g/ha): 5% | % visual injury Obs ([9]; 15 g/ha): 15% | % visual injury, Obs ([9]; applied alone, 10 g/ha): 5%
